Measured values as given in PMC6694038, “Pharmacogenomic–pharmacokinetic study of selective estrogen-receptor modulators with intra-patient dose escalation in breast cancer” (Breast Cancer (Tokyo, Japan), 2019).
Where two headings read alike, the source gives them in different places.

How the values were obtained:
[1] = Source text: Written informed consent was obtained from all the participants included in the study. The patient enrolment period for the screening study started on February 1, 2009 and ended on July 31, 2012.
We obtained data on compliance and the grade of hot flush as defined by the Common Terminology Criteria for Adverse Events v3.0.
The p value was not calculated if there were no events.

[2] = TOR versus TAM, seven randomized-controlled trials; cited from earlier work
[3] = Plasma concentrations of TAM, TOR and their metabolites by LC–MS/MS (screening study); conditions: TOR 120 mg for up to 6 months
[4] = weighting of plasma concentration; cited from earlier work

CN(C)CCOc1ccc(/C(=C(/CCCl)c2ccccc2)c2ccccc2)cc1 [TOR, toremifene]
Hyperglycemia All grade, % of patients ([1]; TOR 120 mg (1)): 0 (0) %
Hyperglycemia All grade, patients ([1]; TOR 120 mg (1)): 0 (0)
Hyperglycemia ≧ G2, % of patients ([1]; TOR 120 mg (1)): 0 (0) %
Hyperglycemia ≧ G2, patients ([1]; TOR 120 mg (1)): 0 (0)
LDH elevation All grade, % of patients ([1]; TOR 120 mg (1)): 7.1%
LDH elevation All grade, patients ([1]; TOR 120 mg (1)): 1
LDH elevation ≧ G2, % of patients ([1]; TOR 120 mg (1)): 7.1%
LDH elevation ≧ G2, patients ([1]; TOR 120 mg (1)): 1
LDL elevation All grade, % of patients ([1]; TOR 120 mg (1)): 14.3%
LDL elevation All grade, patients ([1]; TOR 120 mg (1)): 1
LDL elevation ≧ G2, % of patients ([1]; TOR 120 mg (1)): 0 (0) %
LDL elevation ≧ G2, patients ([1]; TOR 120 mg (1)): 0 (0)
Low PLT All grade, % of patients ([1]; TOR 120 mg (1)): 0 (0) %
Low PLT All grade, patients ([1]; TOR 120 mg (1)): 0 (0)
Low PLT ≧ G2, % of patients ([1]; TOR 120 mg (1)): 0 (0) %
Low PLT ≧ G2, patients ([1]; TOR 120 mg (1)): 0 (0)
Low WBC All grade, % of patients ([1]; TOR 120 mg (1)): 11.1%
Low WBC All grade, patients ([1]; TOR 120 mg (1)): 1
Low WBC ≧ G2, % of patients ([1]; TOR 120 mg (1)): 11.1%
Low WBC ≧ G2, patients ([1]; TOR 120 mg (1)): 1
T. Bil elevation All grade, % of patients ([1]; TOR 120 mg (1)): 0 (0) %
T. Bil elevation All grade, patients ([1]; TOR 120 mg (1)): 0 (0)
T. Bil elevation ≧ G2, % of patients ([1]; TOR 120 mg (1)): 0 (0) %
T. Bil elevation ≧ G2, patients ([1]; TOR 120 mg (1)): 0 (0)
TG elevation All grade, % of patients ([1]; TOR 120 mg (1)): 0 (0) %
TG elevation All grade, patients ([1]; TOR 120 mg (1)): 0 (0)
TG elevation ≧ G2, % of patients ([1]; TOR 120 mg (1)): 0 (0) %
TG elevation ≧ G2, patients ([1]; TOR 120 mg (1)): 0 (0)
Weight, max ([1]; TOR 120 mg (1)): 73.5 kg
Weight, mean ([1]; TOR 120 mg (1)): 53.4 kg
Weight, median ([1]; TOR 120 mg (1)): 51.0 kg
Weight, min ([1]; TOR 120 mg (1)): 45.0 kg
Cre elevation All grade, % of patients ([1]; TOR 120 mg (2)): 16.7%
Cre elevation All grade, patients ([1]; TOR 120 mg (2)): 2
Cre elevation ≧ G2, % of patients ([1]; TOR 120 mg (2)): 0 (0) %
Cre elevation ≧ G2, patients ([1]; TOR 120 mg (2)): 0 (0)
GOT elevation All grade, % of patients ([1]; TOR 120 mg (2)): 8.3%
GOT elevation All grade, patients ([1]; TOR 120 mg (2)): 1
GOT elevation ≧ G2, % of patients ([1]; TOR 120 mg (2)): 0 (0) %
GOT elevation ≧ G2, patients ([1]; TOR 120 mg (2)): 0 (0)
GPT elevation All grade, % of patients ([1]; TOR 120 mg (2)): 8.3%
GPT elevation All grade, patients ([1]; TOR 120 mg (2)): 1
GPT elevation ≧ G2, % of patients ([1]; TOR 120 mg (2)): 0 (0) %
GPT elevation ≧ G2, patients ([1]; TOR 120 mg (2)): 0 (0)
Hot flush G0, % of patients ([1]; TOR 120 mg (2)): 75.0%
Hot flush G0, patients ([1]; TOR 120 mg (2)): 9
Hot flush G1, % of patients ([1]; TOR 120 mg (2)): 8.3%
Hot flush G1, patients ([1]; TOR 120 mg (2)): 1
Hot flush G2, % of patients ([1]; TOR 120 mg (2)): 16.7%
Hot flush G2, patients ([1]; TOR 120 mg (2)): 2
Hyperglycemia All grade, % of patients ([1]; TOR 120 mg (2)): 7.1%
Hyperglycemia All grade, patients ([1]; TOR 120 mg (2)): 1
Hyperglycemia ≧ G2, % of patients ([1]; TOR 120 mg (2)): 7.1%
Hyperglycemia ≧ G2, patients ([1]; TOR 120 mg (2)): 1
LDH elevation All grade, % of patients ([1]; TOR 120 mg (2)): 0 (0) %
LDH elevation All grade, patients ([1]; TOR 120 mg (2)): 0 (0)
LDH elevation ≧ G2, % of patients ([1]; TOR 120 mg (2)): 0 (0) %
LDH elevation ≧ G2, patients ([1]; TOR 120 mg (2)): 0 (0)
LDL elevation All grade, % of patients ([1]; TOR 120 mg (2)): 10.0%
LDL elevation All grade, patients ([1]; TOR 120 mg (2)): 1
LDL elevation ≧ G2, % of patients ([1]; TOR 120 mg (2)): 0 (0) %
LDL elevation ≧ G2, patients ([1]; TOR 120 mg (2)): 0 (0)
Low PLT All grade, % of patients ([1]; TOR 120 mg (2)): 0 (0) %
Low PLT All grade, patients ([1]; TOR 120 mg (2)): 0 (0)
Low PLT ≧ G2, % of patients ([1]; TOR 120 mg (2)): 0 (0) %
Low PLT ≧ G2, patients ([1]; TOR 120 mg (2)): 0 (0)
Low WBC All grade, % of patients ([1]; TOR 120 mg (2)): 8.3%
Low WBC All grade, patients ([1]; TOR 120 mg (2)): 1
Low WBC ≧ G2, % of patients ([1]; TOR 120 mg (2)): 8.3%
Low WBC ≧ G2, patients ([1]; TOR 120 mg (2)): 1
T. Bil elevation All grade, % of patients ([1]; TOR 120 mg (2)): 0 (0) %
T. Bil elevation All grade, patients ([1]; TOR 120 mg (2)): 0 (0)
T. Bil elevation ≧ G2, % of patients ([1]; TOR 120 mg (2)): 0 (0) %
T. Bil elevation ≧ G2, patients ([1]; TOR 120 mg (2)): 0 (0)
TG elevation All grade, % of patients ([1]; TOR 120 mg (2)): 0 (0) %
TG elevation All grade, patients ([1]; TOR 120 mg (2)): 0 (0)
TG elevation ≧ G2, % of patients ([1]; TOR 120 mg (2)): 0 (0) %
TG elevation ≧ G2, patients ([1]; TOR 120 mg (2)): 0 (0)
Weight, max ([1]; TOR 120 mg (2)): 73.0 kg
Weight, mean ([1]; TOR 120 mg (2)): 53.6 kg
Weight, median ([1]; TOR 120 mg (2)): 51.1 kg
Weight, min ([1]; TOR 120 mg (2)): 46.0 kg
Body weight during dose escalation ([1]; TOR 40 to 120 mg): remained stable
Hot flushes and GOT/GPT elevation with an increase in the dose ([1]; TOR 40 to 120 mg): only a few patients developed hot flushes and GOT/GPT elevation
Efficacy in patients with advanced breast cancer [2]: equally effective
Concentration on continuing the same dose [3]: remained constant
In vitro activity factor in the total activity of TOR (TOR = 1.0) [4]: 1.0
